This is an account of results in patent publication US11865124B2, “Vitamin c and doxycycline: a synthetic lethal combination therapy for eradicating cancer stem cells (CSCS)” (priority 2017, dated 2024).

Read-outs that look alike come from different tables or passages of the source.

Test [1] has as its system MCF7-DoxyR cells. The test is described as follows: Mammosphere formation assay (CSC propagation) in doxycycline-resistant MCF7 cells. In kind it is cell-based. From the text:
To test this hypothesis, the inventors generated a cancer cell sub-population metabolically synchronized toward a glycolytic phenotype by chronically treating MCF7 cells with the FDA-approved antibiotic doxycycline, a mitochondrial inhibitor. Briefly, MCF7 cells were obtained from ATCC and cultured in DMEM (Sigma Aldrich). MCF7 cells resistant to doxycycline (MCF7-DoxyR cells) were selected by a stepwise exposure to increasing concentrations of doxycycline. […] It should be appreciated that other cancer cell lines and other mitochondrial (oxidation) inhibitors may be used.
To more directly assess functional CSC activity, mammosphere formation assays may be used. Briefly, a single cell suspension of MCF7 or MCF7 DoxyR cells may be prepared using enzymatic (1× Trypsin-EDTA, Sigma Aldrich), and manual disaggregation (25-gauge needle). Cells may be plated at a density of 500 cells/cm2 in mammosphere medium (DMEM-F12/B27/20-ng/ml EGF/PenStrep) in nonadherent conditions, in culture dishes coated with (2-hydroxyethylmethacrylate) (poly-HEMA, Sigma), in the presence of Atovaquone (FIG. 6A) or Chloroquine (FIG. 6B). Cells may be grown for 5 days and maintained in a humidified incubator at 37° C. at an atmospheric pressure in 5% (v/v) carbon dioxide/air. After 5 days for culture, spheres larger than 50 μm may be counted using an eye piece graticule, and the percentage of cells plated which formed spheres may be calculated. Mammosphere assays may be performed in triplicate and repeated three times independently.
The present approach further involves methods of testing the efficacy of glycolysis inhibitors on CSC propagation using other clinically-approved drugs that functionally behave as OXPHOS inhibitors (Irinotecan, Sorafenib, Niclosamide) or glycolysis inhibitors (Stiripentol) on mammosphere formation. Briefly, MCF7 DoxyR cells were cultured in low attachment plates and treated with Vehicle or increasing concentrations of the lactate dehydrogenase (LDH) inhibitor Stiripentol (2 μM to 100 μM) (FIG. 11A) or the OXPHOS inhibitors Irinotecan (500 nM to 80 μM) (FIG. 11B), Sorafenib (500 nM to 40 μM) (FIG. 11C), Berberine Chloride (500 nM to 10 μM) (FIG. 11D) and Niclosamide (FIG. 11E-F) for 5 days before counting. Independent experiments were performed in triplicate.

The next test has as its system MCF7 CSCs. The conditions noted are these: control MCF7 CSCs; Bonuccelli et al, Oncotarget 2017; read-out: IC-50, MCF7 CSC propagation; cited from earlier work.
Test [2] concerns MCF7-DoxyR cells. Nature of the test: Cell migration, wound healing scratch assay. In kind it is cell-based. The conditions noted are these: MCF7-DoxyR cells (chronic doxycycline) vs MCF7 cells, 24 h. From the text: (§1) To test this hypothesis, the inventors generated a cancer cell sub-population metabolically synchronized toward a glycolytic phenotype by chronically treating MCF7 cells with the FDA-approved antibiotic doxycycline, a mitochondrial inhibitor. Briefly, MCF7 cells were obtained from ATCC and cultured in DMEM (Sigma Aldrich). MCF7 cells resistant to doxycycline (MCF7-DoxyR cells) were selected by a stepwise exposure to increasing concentrations of doxycycline. Specifically, MCF7 cells were initially exposed to 12.5 μM doxycycline, followed by 3 weeks of treatment with 25 μM doxycycline, followed by 3 weeks of treatment with 50 μM doxycycline. The doxycycline-resistant MCF7 cells were then routinely maintained in regular medium supplemented with 25 μM Doxycycline. It should be appreciated that other cancer cell lines and other mitochondrial (oxidation) inhibitors may be used.
The present approach further involves methods of analyzing the effects of chronic treatment on functionality by considering cell migration. […] The migration assay was evaluated using Incucyte Zoom (Essen Bioscience). The rate of migration was measured by quantifying the % of wound closure area, determined using the software ImageJ, according to the formula: % of wound closure=[(At=0 h−At=Δ h)/At=0 h]×100%. […] Statistical significance was measured using the t-test. […]

The test system of test [3] is MCF7-DoxyR cells. Nature of the test: Proliferation assay by EdU incorporation (flow cytometry). In kind it is cell-based. Particulars: MCF7-DoxyR cells (chronic doxycycline) vs MCF7 cells.
Description: as §1, with “The doxycycline-resistant MCF7 cells were then routinely maintained in regular medium supplemented with 25 μM Doxycycline. It should be appreciated that other cancer cell lines and other mitochondrial (oxidation) inhibitors may be used.” left out
To determine functional effects on doxycycline on CSC propagation, proliferation may be measured by determining relative levels of EdU incorporation (EdU refers to the alkyne-containing thymidine analog (5-ethynyl-2′-deoxyuridine) which is incorporated into DNA during active DNA synthesis). […] EdU was detected after permeabilization by staining cells with Click-iT Plus reaction cocktail containing the Fluorescent dye picolylazide for 30 min at room temperature. Samples were then washed and analyzed using flow cytometer. […] Data were analyzed using FlowJo software. FIGS. 7A-B show MCF7-DoxyR cells have a reduced ability to proliferate by more than 60%, as measured using EdU-incorporation.
In general terms: Flow cytometry measures light scatter and fluorescence of single cells or particles in a stream.

The mark [4] stands for this setting: Homo sapiens, mammosphere formation, MCF7 DoxyR cells, read-out: IC-50, DoxyR CSC propagation.
Where [5] appears, read: Homo sapiens, MCF7, 120 h, read-out: inhibition of CSC propagation of MCF7-DoxyR cells.
Where [6] appears, read: Homo sapiens, 120 h, mammosphere formation, MCF7 DoxyR cells, 5 days, read-out: IC-50, DoxyR CSC propagation.

In the case of `O=CC[C@@H](O)[C@H](O)[C@H](O)CO` [2-DG, 2-deoxy-glucose], in the test on MCF7-DoxyR cells [1] (Homo sapiens, MCF7, 10 mM 2-DG, read-out: inhibition of propagation of DoxyR CSCs), the inhibition at 10000 µM is greater than 90%. Moreover, the inhibition at 20000 µM in the test on MCF7-DoxyR cells [1] (Homo sapiens, MCF7, 20 mM 2-DG, read-out: inhibition of propagation of DoxyR CSCs) was determined as 100%.
Regarding `O=C1C(O)=C([C@H]2CC[C@H](c3ccc(Cl)cc3)CC2)C(=O)c2ccccc21` [Atovaquone], the inhibition at 1 µM in the test with MCF7-DoxyR cells [1] (Homo sapiens, MCF7, 120 h, 1 μM Atovaquone, mammospheres, 5 days) is greater than 85%.
In the case of `COc1ccc2cc3[n+](cc2c1OC)CCc1cc2c(cc1-3)OCO2` [Berberine, Berberine Chloride], in the test on MCF7-DoxyR cells [1] (setting [4]), the IC50 is roughly 1 µM.
Turning to `CCN(CC)CCCC(C)Nc1ccnc2cc(Cl)ccc12` (centres unmarked) [Chloroquine], in the test on MCF7-DoxyR cells [1] (setting [5]), the inhibition at 25 µM was greater than 75% and the inhibition at 50 µM was greater than 90%.
Turning to `CCc1c2c(nc3ccc(OC(=O)N4CCC(N5CCCCC5)CC4)cc13)-c1cc3c(c(=O)n1C2)COC(=O)[C@]3(O)CC` [Irinotecan], the IC50 in the test on MCF7-DoxyR cells [1] (setting [6]) was roughly 0.5 µM.
In the case of `O=C(Nc1ccc([N+](=O)[O-])cc1Cl)c1cc(Cl)ccc1O` [Niclosamide], in the test on MCF7-DoxyR cells [1] (setting [6]), the IC50 is roughly 0.1 µM.
Consider `CNC(=O)c1cc(Oc2ccc(NC(=O)Nc3ccc(Cl)c(C(F)(F)F)c3)cc2)ccn1` [Sorafenib], for which the IC50 with MCF7-DoxyR cells [1] (Homo sapiens, MCF7, read-out: IC-50, DoxyR CSC propagation) fell in the range of 0.5 to 1 µM.
Consider `CC(C)(C)C(O)/C=C/c1ccc2c(c1)OCO2` (centres unmarked) [Stiripentol], for which the IC50 with MCF7-DoxyR cells [1] (setting [4]) was in the range of 10 to 50 µM.
In the test with MCF7-DoxyR cells [1] (Homo sapiens, MCF7, 250 μM Vitamin C), `O=C1O[C@H]([C@@H](O)CO)C(O)=C1O` [Vitamin C, ascorbic acid] registered an inhibition at 250 µM greater than 90%. The compound further displayed an inhibition at 500 µM with MCF7-DoxyR cells [1] (Homo sapiens, MCF7, 500 μM Vitamin C) of 100%. The results for the IC50 with MCF7-DoxyR cells [1] (setting [4]) and in the test with MCF7 CSCs were 100 to 250 µM and 1000 µM, respectively. Besides, the “fold more sensitive, DoxyR CSCs vs control MCF7 CSCs” value in the test with MCF7-DoxyR cells [1] (ratio of IC-50 in MCF7 CSCs to DoxyR CSCs, identical assay conditions) is given as 4-10 fold.
Consider `C[C@H]1c2cccc(O)c2C(=O)C2=C(O)[C@]3(O)C(=O)C(C(N)=O)=C(O)[C@@H](N(C)C)[C@@H]3[C@@H](O)[C@@H]21` [doxycycline], for which the “reduction in cell migration (scratch assay)” value in the test on MCF7-DoxyR cells [2] is listed as “greater than 50%”. The “reduction in ability to proliferate (EdU-incorporation)” value in the test with MCF7-DoxyR cells [3] was “more than 60%”.

What is called inhibition is the percentage by which the read-out fell short of the control.
